# Assay results as given in patent EP0565593B1, “REDUCING PESTICIDAL INTERACTIONS IN CROPS” (priority 1990, dated 1992).
# Values joined by “and” are separate entries in the source; they are usually repeats but may differ in a detail not shown here. Equal entries are not always repeated.
# Legend:
# [1] = test system: velvetleaf (Abutilon theophrasti); test: Greenhouse test, combination of Procedures II and III (Examples 1, 2; Tables 1, 2); format: in vivo; settings: for % Injury VELE: 3 weeks; for Percent Injury VELE: 7 weeks
# Corn [2] = test: Greenhouse test Procedure II: herbicide, insecticide and antidote incorporated in cover layer (Example 4; Table 4); format: in vivo; settings: 3 weeks
# Summary of the method: (§1)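 Herbicide, insecticide and antidote in acetone were track-sprayed sequentially onto a soil cover layer, incorporated and spread over seeded beds in silt loam. Initial overhead irrigation equal to 0.6 cm rainfall, then sub-irrigation in the greenhouse. Injury was rated 3 weeks after treatment against untreated and herbicide-only controls.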
# VELE (velvetleaf) [3] = test: Greenhouse test Procedure II (Example 4; Table 4); format: in vivo, Abutilon theophrasti; settings: 3 weeks
# Summary of the method: as §1
# Corn [4] = test: Greenhouse test Procedure I with PPI or POE herbicide and foliar insecticide (Example 5; Table 5); format: in vivo
# Method: (§2) Containers were filled and compacted with a fumigated silt loam top soil to a depth of about 1.3 cm from the top of the container. A first container was designated as an untreated control, a second container was designated as a herbicide control, and a third container was designated as a herbicide + antidote test container. Each of the containers was seeded with a crop species. A measured amount of herbicide dispersed or dissolved in acetone was applied to a measured quantity of soil. To this same quantity of soil treated with herbicide, there was added a measured amount of antidote dispersed or dissolved in acetone. The quantity of soil treated with the herbicide and antidote was thoroughly mixed to incorporate the herbicide and antidote in the soil uniformly. The seed bed in the third container of soil was covered with the soil treated with the herbicide and antidote and the container was leveled. For each test series, the seed beds of the first and second containers were likewise covered by soil layers. the cover layer of the first container was not treated with herbicide or antidote.
# (§3) Insecticide application was made as described in the tests in the examples below. The containers were then placed on a bench in a greenhouse and sub-irrigated as required for the duration of the test.
# (§4) Said herbicide and antidote were sequentially pipetted onto cover layers, which were spread over the seed beds and subirrigated as in Procedure I and allowed to grow to a height of about 10 cm over a period of 11 days. Herbicide No. 1 and Insecticide No. 2 were then sequentially sprayed on the plant foliage. Observations were made three (3) weeks after initial treatment, 10 days after foliar treatment).
# VELE (velvetleaf) [5] = test: as above; format: in vivo, Abutilon theophrasti
# Method: as §2, §3, §4
# Corn [6] = test: Field trials, PPI, PRE and POE herbicide applications with terbufos (Example 7); format: in vivo; settings: mean of five locations, soil-applied insecticide prior to planting
# Source text: This example summarizes the results of one series of field trials from a plurality of locations and soil types wherein test chemicals were applied in various modes including pre-plant incorporated (PPI), post emergence (POE) and preemergence (PRE) with and without a safener (antidote). Test Chemicals were Herbicide Nos 1, 2, 3 and 7-9; Insecticide No. 1 and Antidote No. 1.
# In these trials Insecticide No. 1 (terbufos) was T-banded or furrow applied at labeled rates prior to planting corn. PPI herbicide treatments were applied prior to insecticide applications; PRE treatments were applied after the insecticide application either prior to or after seeding the corn. POE herbicide applications were made at 2 corn-growth stages, i.e., early post (EP) at the 2-3 leaf stage and late post (LP) at the 4-7 leaf stage. Plots were small plot with 3 replications in a randomized complete block design. In the PRE and PPI herbicide treatments, Antidote No. 1 was applied as a tankmix in both treatments. In the POE herbicide treatments, that antidote was applied as a tank mix with the herbicide at the EP and LP stages.
# Velvetleaf (VELE) = test: whole plant or invertebrate; format: in vivo, Abutilon theophrasti; settings: for inhibition at 140 g/ha: Abutilon theophrasti, iv, 312 h
# [7] = Insecticide 2 3.36 + Herbicide 1 0.07 kg/Ha
# [8] = Insecticide 2 3.36 + Herbicide 1 0.14 kg/Ha
# [9] = Herbicide 1 0.07 Kg/Ha POE, 10 days after foliar treatment
# [10] = Herbicide 1 0.14 Kg/Ha PPI, 3 weeks
# [11] = Herbicide 1 0.28 Kg/Ha POE, 10 days after foliar treatment
# [12] = Herbicide 1 0.56 Kg/Ha PPI, 3 weeks
# [13] = Herbicide 1 1.12 Kg/Ha POE, 10 days after foliar treatment
# [14] = Herbicide 1 2.24 Kg/Ha PPI, 3 weeks
# [15] = Insecticide 2 1.68 (foliar) + Herbicide 1 0.14 Kg/Ha PPI, 3 weeks
# [16] = Insecticide 2 1.68 (foliar) + Herbicide 1 0.56 Kg/Ha PPI, 3 weeks
# [17] = Insecticide 2 1.68 (foliar) + Herbicide 1 2.24 Kg/Ha PPI, 3 weeks
# [18] = Insecticide 2 1.68 + Herbicide 1 0.07 Kg/Ha POE, 10 days after foliar treatment
# [19] = Insecticide 2 1.68 + Herbicide 1 0.28 Kg/Ha POE, 10 days after foliar treatment
smiles,measurement,setting,value
"COC(=O)c1c(Cl)nn(C)c1S(=O)(=O)NC(=O)Nc1nc(OC)cc(OC)n1 [Herbicide No. 1, N-[(4,6-dimethoxypyrimidin-2-yl)aminocarbonyl]-3-chloro-4-methoxycarbonyl-5-sulfonamide, reference compound]",% Injury VELE,[1]; Ex. 2: Herbicide 1 0.14 Kg/Ha,89%
same,% Injury VELE,[1]; Ex. 2: Herbicide 1 0.56 Kg/Ha,93%
same,% Injury VELE,[1]; Ex. 2: Insecticide 1 0.11 kg/305m + Herbicide 1 0.14 Kg/Ha,93%
same,% Injury VELE,[1]; Ex. 2: Insecticide 1 0.11 kg/305m + Herbicide 1 0.56 Kg/Ha,94%
same,% Injury VELE,[1]; Ex. 2: Insecticide 1 0.23 Kg/305m + Herbicide 1 0.14 + Herbicide 2 4.48 Kg/Ha,95%
same,% Injury VELE,[1]; Ex. 2: Insecticide 1 0.23 Kg/305m + Herbicide 1 0.14 Kg/Ha,83%
same,% Injury VELE,[1]; Ex. 2: Insecticide 1 0.23 Kg/305m + Herbicide 1 0.56 Kg/Ha,95%
same,% Injury VELE,[1]; Ex. 2: Insecticide 2 3.36 Kg/Ha + Herbicide 1 0.14 + Herbicide 2 4.48 Kg/Ha,88%
same,Percent Injury VELE,[1]; Herbicide 1 0.14 Kg/Ha,90%
same,Percent Injury VELE,[1]; Herbicide 1 0.56 Kg/Ha,95%
same,Percent Injury VELE,[1]; Herbicide 1 2.24 Kg/Ha,92%
same,Percent Injury VELE,[1]; Insecticide 1 0.23 kg/305m + Herbicide 1 0.14 Kg/Ha,90%
same,Percent Injury VELE,[1]; Insecticide 1 0.23 kg/305m + Herbicide 1 0.56 Kg/Ha,92%
same,Percent Injury VELE,[1]; Insecticide 1 0.23 kg/305m + Herbicide 1 2.24 Kg/Ha,95%
same,Percent Injury VELE,[1]; Insecticide 2 3.36 kg/ha + Herbicide 1 0.14 Kg/Ha,78%
same,Percent Injury VELE,[1]; Insecticide 2 3.36 kg/ha + Herbicide 1 0.56 Kg/Ha,92%
same,Percent Injury VELE,[1]; Insecticide 2 3.36 kg/ha + Herbicide 1 2.24 Kg/Ha,92%
same,% Injury Corn,Corn [2]; Herbicide 1 0.07 kg/Ha,2%
same,% Injury Corn,Corn [2]; Herbicide 1 0.14 kg/Ha,13%
same,% Injury Corn,Corn [2]; [7],0%
same,% Injury Corn,Corn [2]; [8],38%
same,% Injury VELE,VELE (velvetleaf) [3]; Herbicide 1 0.07 kg/Ha,20%
same,% Injury VELE,VELE (velvetleaf) [3]; Herbicide 1 0.14 kg/Ha,67%
same,% Injury VELE,VELE (velvetleaf) [3]; [7],10%
same,% Injury VELE,VELE (velvetleaf) [3]; [8],20%
same,% Injury Corn,Corn [4]; [9],0%
same,% Injury Corn,Corn [4]; [10],5%
same,% Injury Corn,Corn [4]; [11],15%
same,% Injury Corn,Corn [4]; [12],28%
same,% Injury Corn,Corn [4]; [13],7%
same,% Injury Corn,Corn [4]; [14],58%
same,% Injury Corn,Corn [4]; [15],18%
same,% Injury Corn,Corn [4]; [16],10%
same,% Injury Corn,Corn [4]; [17],87%
same,% Injury Corn,Corn [4]; [18],10%
same,% Injury Corn,Corn [4]; [19],10%
same,% Injury VELE,VELE (velvetleaf) [5]; [9],30%
same,% Injury VELE,VELE (velvetleaf) [5]; [10],78%
same,% Injury VELE,VELE (velvetleaf) [5]; [11],30%
same,% Injury VELE,VELE (velvetleaf) [5]; [12],93%
same,% Injury VELE,VELE (velvetleaf) [5]; [13],20%
same,% Injury VELE,VELE (velvetleaf) [5]; [14],95%
same,% Injury VELE,VELE (velvetleaf) [5]; [15],90%
same,% Injury VELE,VELE (velvetleaf) [5]; [16],90%
same,% Injury VELE,VELE (velvetleaf) [5]; [17],98%
same,% Injury VELE,VELE (velvetleaf) [5]; [18],23%
same,% Injury VELE,VELE (velvetleaf) [5]; [19],42%
same,interaction with Insecticide No. 1 after POE herbicide,Corn [6],insignificant interaction
same,inhibition at 140 g/ha,"Velvetleaf (VELE); Herb. No. 1 0.14 kg/Ha alone, PPI, 13 days after planting",95%
same,inhibition at 140 g/ha,"Velvetleaf (VELE); Table 51, Herbicide No. 1 0.14 Kg/Ha, where applied Biocide No. 8 8.96 kg/Ha and antidote 4.48 Kg/Ha, all PPI, observed 13 days after treatment",85%
same,inhibition at 140 g/ha,"Velvetleaf (VELE); Table 52, Herbicide No. 1 0.14 Kg/Ha, where applied Biocide No. 5 8.96 kg/Ha and antidote 4.48 Kg/Ha, all PPI, observed 13 days after treatment",85%
same,% Inhibition VELE,"Velvetleaf (VELE); Herbicide No. 1 0.0175 Kg/Ha PPI alone, Table 19",85%
same,% Inhibition VELE,"Velvetleaf (VELE); Herbicide No. 1 0.0175 Kg/Ha PPI alone, Table 20",80%
same,% Inhibition VELE,"Velvetleaf (VELE); Herbicide No. 1 0.0175 Kg/Ha PPI alone, Table 21",80%
same,% Inhibition VELE,"Velvetleaf (VELE); Herbicide No. 1 0.0175 Kg/Ha PPI alone, Table 22",85%
same,% Inhibition VELE,Velvetleaf (VELE); in vivo,95% and 90% and 80%
